The values below come from patent publication US20250145633A1, “SUBSTITUTED FURANOPYRIMIDINE COMPOUNDS AS PDE1 INHIBITORS” (Dart NeuroScience, LLC, priority 2017, published 2025).

Where only a bound is given, the exact number is not on record here.

The first test deals with human PDE1B enzyme (Homo sapiens (Human), UniProt Q01064). The test is described as follows: IMAP TR-FRET PDE1B enzymatic assay. It is filed as biochemical. Particulars: negative log of half-maximal molar inhibitory concentration; 200 nM FAM-cAMP; values given as bins. In a few lines:
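Full-length GST-tagged human PDE1B (250 pg/well) in IMAP BSA buffer with 10 U/ml calmodulin and 2.5 mM CaCl2; compound pre-incubated 5 min at room temperature, then 200 nM (final) FAM-cAMP for 30 min. IMAP binding reagent/Tb added, 1 h; TR-FRET 520/490 ratio read. IC50 from sigmoidal dose-response fit.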
On the technique in general: Time-resolved FRET reads energy transfer from a long-lived donor to a nearby acceptor.
As for `COc1ccc(CNC(=O)c2c(C)oc3ncnc(NC4(C)CC4)c23)c(F)c1F` [Example 185, N-[(2,3-Difluoro-4-methoxyphenyl)methyl]-6-methyl-4-[(1-methylcyclopropyl)amino]furo[2,3-d]pyrimidine-5-carboxamide], the “PDE1b (pIC50)” value is listed as above 8.

On to `Cc1oc2ncnc(NC3(C)CC3)c2c1C(=O)NC1CCN(C)CC1` [Example 193, 6-Methyl-4-[(1-methylcyclopropyl)amino]-N-(1-methylpiperidin-4-yl)furo[2,3-d]pyrimidine-5-carboxamide], for which the “PDE1b (pIC50)” value is on record as below 6.

Take `Cc1oc2ncnc(NC3(C)CC3)c2c1C(=O)NC(C)c1ccccc1` (centres unmarked) [Example 194, 6-Methyl-4-[(1-methylcyclopropyl)amino]-N-(1-phenylethyl)furo[2,3-d]pyrimidine-5-carboxamide]: the “PDE1b (pIC50)” value is given as above 8.

As for `Cc1ccc(CNC(=O)c2c(C)oc3ncnc(NC4(C)CC4)c23)cc1` [Example 196, 6-Methyl-4-[(1-methylcyclopropyl)amino]-N-[(4-methylphenyl)methyl]furo[2,3-d]pyrimidine-5-carboxamide], the “PDE1b (pIC50)” value is on record as above 8.

The same test, now with this note: negative log of half-maximal molar inhibitory concentration; 200 nM FAM-cAMP; values given as bins; read-out: PDE1b (pIC50) (converted).
With `Cc1oc2ncnc(NC3(C)CC3)c2c1C(=O)N1CCCN(c2ccccc2F)CC1` [Example 156, 5-[4-(2-Fluorophenyl)-1,4-diazepane-1-carbonyl]-6-methyl-N-(1-methylcyclopropyl)furo[2,3-d]pyrimidin-4-amine], the IC50 is 10 to 100 nM.

Consider `Cc1oc2ncnc(NC3(C)CC3)c2c1C(=O)N1CCCN(c2ccccc2)CC1` [Example 157, 6-Methyl-N-(1-methylcyclopropyl)-5-(4-phenyl-1,4-diazepane-1-carbonyl)furo[2,3-d]pyrimidin-4-amine], for which the IC50 was 100 to 1000 nM.

As to `Cc1oc2ncnc(NC3(C)CC3)c2c1C(=O)N1CCCN(c2ccccn2)CC1` [Example 158, 6-Methyl-N-(1-methylcyclopropyl)-5-[4-(pyridin-2-yl)-1,4-diazepane-1-carbonyl]furo[2,3-d]pyrimidin-4-amine], the IC50 is 100 to 1000 nM.

For `COc1ccc(N2CCCN(C(=O)c3c(C)oc4ncnc(NC5(C)CC5)c34)CC2)cc1` [Example 159, 5-[4-(4-Methoxyphenyl)-1,4-diazepane-1-carbonyl]-6-methyl-N-(1-methylcyclopropyl)furo[2,3-d]pyrimidin-4-amine], the IC50 is 100 to 1000 nM.

As for `Cc1oc2ncnc(NC3(C)CC3)c2c1C(=O)N1CCN(c2ccnc(F)c2)CC1` [Example 160, 5-[4-(2-fluoropyridin-4-yl)piperazine-1-carbonyl]-6-methyl-N-(1-methylcyclopropyl)furo[2,3-d]pyrimidin-4-amine], the IC50 is 10 to 100 nM.

`Cc1oc2ncnc(NC3(C)CC3)c2c1C(=O)N1CCN(c2cc(F)ncn2)CC1` [Example 161, 5-[4-(6-Fluoropyrimidin-4-yl)piperazine-1-carbonyl]-6-methyl-N-(1-methylcyclopropyl)furo[2,3-d]pyrimidin-4-amine]: the IC50 is 10 to 100 nM.

On to `Cc1oc2ncnc(NC3(C)CC3)c2c1C(=O)N1CCN(c2ccnc(F)n2)CC1` [Example 162, 5-[4-(2-Fluoropyrimidin-4-yl)piperazine-1-carbonyl]-6-methyl-N-(1-methylcyclopropyl)furo[2,3-d]pyrimidin-4-amine], for which the IC50 is 10 to 100 nM.

On to `Cc1oc2ncnc(NC3(C)CC3)c2c1C(=O)NCc1ccncc1F` [Example 163, N-[(3-Fluoropyridin-4-yl)methyl]-6-methyl-4-[(1-methylcyclopropyl)amino]furo[2,3-d]pyrimidine-5-carboxamide], for which the IC50 was 10 to 100 nM.

Regarding `Cc1oc2ncnc(NC3(C)CC3)c2c1C(=O)NCc1ccnc(F)c1` [Example 164, N-[(2-Fluoropyridin-4-yl)methyl]-6-methyl-4-[(1-methylcyclopropyl)amino]furo[2,3-d]pyrimidine-5-carboxamide], the IC50 is 10 to 100 nM.

With `Cc1oc2ncnc(NC3(C)CC3)c2c1C(=O)NC1CCCC1` [Example 165, N-Cyclopentyl-6-methyl-4-[(1-methylcyclopropyl)amino]furo[2,3-d]pyrimidine-5-carboxamide], the IC50 is 10 to 100 nM.

Consider `CCCCCNC(=O)c1c(C)oc2ncnc(NC3(C)CC3)c12` [Example 167, 6-Methyl-4-[(1-methylcyclopropyl)amino]-N-pentylfuro[2,3-d]pyrimidine-5-carboxamide], for which the IC50 was 10 to 100 nM.

For the molecule `Cc1oc2ncnc(NC3(C)CC3)c2c1C(=O)NCCC(C)C` [Example 168, 6-Methyl-N-(3-methylbutyl)-4-[(1-methylcyclopropyl)amino]furo[2,3-d]pyrimidine-5-carboxamide], the IC50 is 10 to 100 nM.

`CCC(CC)NC(=O)c1c(C)oc2ncnc(NC3(C)CC3)c12` [Example 169, 6-Methyl-4-[(1-methylcyclopropyl)amino]-N-(pentan-3-yl)furo[2,3-d]pyrimidine-5-carboxamide]: the IC50 is 10 to 100 nM.

In the case of `Cc1oc2ncnc(NC3(C)CC3)c2c1C(=O)NC(C)C(C)C` (centres unmarked) [Example 170, 6-Methyl-N-(3-methylbutan-2-yl)-4-[(1-methylcyclopropyl)amino]furo[2,3-d]pyrimidine-5-carboxamide], the IC50 was 10 to 100 nM.

With `CCOCCNC(=O)c1c(C)oc2ncnc(NC3(C)CC3)c12` [Example 171, N-(2-Rthoxyethyl)-6-methyl-4-[(1-methylcyclopropyl)amino]furo[2,3-d]pyrimidine-5-carboxamide], the IC50 is 100 to 1000 nM.

Turning to `Cc1oc2ncnc(NC3(C)CC3)c2c1C(=O)Nc1ccnn1C` [Example 174, 6-Methyl-N-(1-methyl-1H-pyrazol-5-yl)-4-[(1-methylcyclopropyl)amino]furo[2,3-d]pyrimidine-5-carboxamide], the IC50 was 100 to 1000 nM.

Regarding `Cc1oc2ncnc(NC3(C)CC3)c2c1C(=O)NCC1CCCO1` (centres unmarked) [Example 175, 6-Methyl-4-[(1-methylcyclopropyl)amino]-N-(oxolan-2-ylmethyl)furo[2,3-d]pyrimidine-5-carboxamide], the IC50 was 10 to 100 nM.

Take `Cc1oc2ncnc(NC3(C)CC3)c2c1C(=O)NCCOC(C)C` [Example 176, 6-Methyl-4-[(1-methylcyclopropyl)amino]-N-[2-(propan-2-yloxy)ethyl]furo[2,3-d]pyrimidine-5-carboxamide]: the IC50 is 10 to 100 nM.

On to `Cc1oc2ncnc(NC3(C)CC3)c2c1C(=O)NCc1ccccc1` [Example 177, N-Benzyl-6-methyl-4-[(1-methylcyclopropyl)amino]furo[2,3-d]pyrimidine-5-carboxamide], for which the IC50 is 10 to 100 nM.

For `Cc1ccccc1NC(=O)c1c(C)oc2ncnc(NC3(C)CC3)c12` [Example 178, 6-Methyl-4-[(1-methylcyclopropyl)amino]-N-(2-methylphenyl)furo[2,3-d]pyrimidine-5-carboxamide], the IC50 is 10 to 100 nM.

For `Cc1cccc(NC(=O)c2c(C)oc3ncnc(NC4(C)CC4)c23)c1` [Example 180, 6-Methyl-4-[(1-methylcyclopropyl)amino]-N-(3-methylphenyl)furo[2,3-d]pyrimidine-5-carboxamide], the IC50 is 10 to 100 nM.

As for `Cc1ncccc1NC(=O)c1c(C)oc2ncnc(NC3(C)CC3)c12` [Example 181, 6-Methyl-4-[(1-methylcyclopropyl)amino]-N-(2-methylpyridin-3-yl)furo[2,3-d]pyrimidine-5-carboxamide], the IC50 was 10 to 100 nM.

`Cc1oc2ncnc(NC3(C)CC3)c2c1C(=O)NCc1ccc(N2CCOCC2)cc1` [Example 184, 6-Methyl-4-[(1-methylcyclopropyl)amino]-N-{[4-(morpholin-4-yl)phenyl]methyl}furo[2,3-d]pyrimidine-5-carboxamide]: the IC50 is 10 to 100 nM.

In the case of `COc1ccc(N2CCN(C(=O)c3c(C)oc4ncnc(NC5(C)CC5)c34)CC2)cc1` [Example 186, 5-[4-(4-Methoxyphenyl)piperazine-1-carbonyl]-6-methyl-N-(1-methylcyclopropyl)furo[2,3-d]pyrimidin-4-amine], the IC50 is 10 to 100 nM.

On to `Cc1oc2ncnc(NC3(C)CC3)c2c1C(=O)NCCc1ccco1` [Example 188, N-[2-(Furan-2-yl)ethyl]-6-methyl-4-[(1-methylcyclopropyl)amino]furo[2,3-d]pyrimidine-5-carboxamide], for which the IC50 was 10 to 100 nM.

For the molecule `Cc1oc2ncnc(NC3(C)CC3)c2c1C(=O)NCCn1ccnc1` [Example 189, N-[2-(1H-Imidazol-1-yl)ethyl]-6-methyl-4-[(1-methylcyclopropyl)amino]furo[2,3-d]pyrimidine-5-carboxamide], the IC50 is 100 to 1000 nM.

With `Cc1oc2ncnc(NC3(C)CC3)c2c1C(=O)NCc1cccs1` [Example 190, 6-Methyl-4-[(1-methylcyclopropyl)amino]-N-(thiophen-2-ylmethyl)furo[2,3-d]pyrimidine-5-carboxamide], the IC50 is 10 to 100 nM.

Take `Cc1oc2ncnc(NC3(C)CC3)c2c1C(=O)NCc1ccsc1` [Example 191, 6-Methyl-4-[(1-methylcyclopropyl)amino]-N-(thiophen-3-ylmethyl)furo[2,3-d]pyrimidine-5-carboxamide]: the IC50 was 10 to 100 nM.

`Cc1oc2ncnc(NC3(C)CC3)c2c1C(=O)NCC1CCCCC1` [Example 192, N-(Cyclohexylmethyl)-6-methyl-4-[(1-methylcyclopropyl)amino]furo[2,3-d]pyrimidine-5-carboxamide]: the IC50 was 10 to 100 nM.

Consider `Cc1oc2ncnc(NC3(C)CC3)c2c1C(=O)NCCc1ccccc1` [Example 195, 6-Methyl-4-[(1-methylcyclopropyl)amino]-N-(2-phenylethyl)furo[2,3-d]pyrimidine-5-carboxamide], for which the IC50 was 10 to 100 nM.

Take `Cc1cccc(CNC(=O)c2c(C)oc3ncnc(NC4(C)CC4)c23)c1` [Example 198, 6-Methyl-4-[(1-methylcyclopropyl)amino]-N-[(3-methylphenyl)methyl]furo[2,3-d]pyrimidine-5-carboxamide]: the IC50 was 10 to 100 nM.
